Assay results from US10544130B2, “Metallo-beta-lactamase inhibitors” (priority 2015, dated 2020).

The compounds below were run on Pseudomonas aeruginosa PAO1 MB9798 (efflux+, IMP-1). Conditions: ratio MITC95 PA 9798/MITC95 PA 9799; imipenem at 2 μg/mL.
Method in brief: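 Isogenic PAO1 pair (efflux+ MB9798, efflux− MB9799, both IMP-1) tested by microbroth MIC with fixed imipenem and/or ceftazidime, usually at CLSI breakpoint, plus fixed class A/C inhibitor against AmpC. MBL inhibitor titrated; concentration restoring susceptibility recorded and fold difference between strains taken as efflux extent.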

In order of rising Efflux ratio:
1. NCCNS(=O)(=O)c1ccc(-c2cccc3sc(N)nc23)c(-c2nn[nH]n2)c1S(N)(=O)=O [Example 145, 4-(2-aminobenzo[d]thiazol-4-yl)-N1-(2-aminoethyl)-3-(2H-tetrazol-5-yl)benzene-1,2-disulfonamide]  0.50
2. NC(=O)[C@@H](N)CNS(=O)(=O)c1ccc(-c2cccc3[nH]c(N)nc23)c(-c2nn[nH]n2)c1S(N)(=O)=O [Example 189, (2S)-2-amino-3-(4-(2-amino-1H-benzo[d]imidazol-4-yl)-2-sulfamoyl-3-(2H-tetrazol-5-yl)phenylsulfonamido)propanamide]  0.50
3. NC[C@@H](CO)NS(=O)(=O)c1ccc(-c2cccc3sc(N)nc23)c(-c2nnn[nH]2)c1S(N)(=O)=O [Example 201, (S)—N^1-(1-amino-3-hydroxypropan-2-yl)-4-(2-aminobenzo[d]thiazol-4-yl)-3-(1H-tetrazol-5-yl)benzene-1,2-disulfonamide]  0.50
4. Nc1nc2c(-c3ccc(S(=O)(=O)NC4C5CNCC54)c(S(N)(=O)=O)c3-c3nnn[nH]3)cccc2s1.O=C(O)C(F)(F)F (stereo not drawn) [Example 111, 6-(4-(2-aminobenzo[d]thiazol-4-yl)-2-sulfamoyl-3-(1H-tetrazol-5-yl)phenylsulfonamido)-3-azabicyclo[3.1.0]hexan-3-ium 2,2,2-trifluoroacetate]  0.50
5. NCCNS(=O)(=O)c1ccc(-c2cccc3cn[nH]c23)c(-c2nn[nH]n2)c1S(N)(=O)=O [Example 9, N^1-(2-aminoethyl)-4-(1H-indazol-7-yl)-3-(2H-tetrazol-5-yl)benzene-1,2-disulfonamide]  0.50
6. NS(=O)(=O)c1c(S(=O)(=O)N[C@@H]2CCNC2)ccc(-c2cccc3[nH]nnc23)c1-c1nn[nH]n1 [Example 235, (R)-4-(1H-benzo[d][1,2,3]triazol-4-yl)-N^1-(pyrrolidin-3-yl)-3-(2H-tetrazol-5-yl)benzene-1,2-disulfonamide]  0.50
7. Nc1nc2c(-c3ccc(S(=O)(=O)N[C@@H]4CCNC4)c(S(N)(=O)=O)c3-c3nnn[nH]3)cccc2s1 [Example 63, 4-(2-amino-1,3-benzothiazol-4-yl)-N1-[(3R)-pyrrolidin-3-yl]-3-(1H-tetrazol-5-yl)benzene-1,2-disulfonamide]  0.50
8. Nc1nc2cccc(-c3ccc(S(N)(=O)=O)c(S(N)(=O)=O)c3-c3nn[nH]n3)c2[nH]1 [Example 1, 4-(2-amino-3H-benzo[d]imidazol-4-yl)-3-(2H-tetrazol-5-yl)benzene-1,2-disulfonamide]  0.65
9. Nc1nc2c(-c3ccc(S(=O)(=O)N[C@H]4CCNC4)c(S(N)(=O)=O)c3-c3nn[nH]n3)cccc2[nH]1 [Example 162, 4-(2-amino-1H-benzo[d]imidazol-4-yl)-N^1-((S)-pyrrolidin-3-yl)-3-(2H-tetrazol-5-yl)benzene-1,2-disulfonamide]  0.87
10. NCCNS(=O)(=O)c1ccc(-c2cccc3oc(N)nc23)c(-c2nn[nH]n2)c1S(N)(=O)=O [Example 11, 4-(2-aminobenzo[d]oxazol-4-yl)-N^1-(2-aminoethyl)-3-(2H-tetrazol-5-yl)benzene-1,2-disulfonamide]  1.00
11. CC1(NS(=O)(=O)c2ccc(-c3cccc4sc(N)nc34)c(-c3nnn[nH]3)c2S(N)(=O)=O)CCCNC1 (stereo not drawn) [Example 57, 4-(2-amino-1,3-benzothiazol-4-yl)-N1-(3-methylpiperidin-3-yl)-3-(1H-tetrazol-5-yl)benzene-1,2-disulfonamide]  1.00
12. CN(C)C(=O)CNS(=O)(=O)c1ccc(-c2cccc3sc(N)nc23)c(-c2nnn[nH]2)c1S(N)(=O)=O [Example 36, N^2-{[4-(2-amino-1,3-benzothiazol-4-yl)-2-sulfamoyl-3-(1H-tetrazol-5-yl)phenyl]sulfonyl}-N,N-dimethylglycinamide]  1.00
13. C[N+]1(C)CC[C@@H](NS(=O)(=O)c2ccc(-c3cccc4[nH]c(N)nc34)c(-c3nn[nH]n3)c2S(N)(=O)=O)C1.[Cl-] [Example 233, (R)-3-((4-(2-amino-1H-benzo[d]imidazol-4-yl)-2-sulfamoyl-3-(2H-tetrazol-5-yl)phenyl)sulfonamido)-1,1-dimethylpyrrolidin-1-ium chloride]  1.00
14. NC[C@H](CO)NS(=O)(=O)c1ccc(-c2cccnc2N)c(-c2nn[nH]n2)c1S(N)(=O)=O [Example 215, (R)-N1-(1-amino-3-hydroxypropan-2-yl)-4-(2-aminopyridin-3-yl)-3-(2H-tetrazol-5-yl)benzene-1,2-disulfonamide]  1.00
15. Nc1nc2c(-c3ccc(S(=O)(=O)NCCO)c(S(N)(=O)=O)c3-c3nn[nH]n3)cccc2s1 [Example 144, 4-(2-aminobenzo[d]thiazol-4-yl)-N1-(2-hydroxyethyl)-3-(2H-tetrazol-5-yl)benzene-1,2-disulfonamide]  1.00
16. NS(=O)(=O)c1c(S(=O)(=O)N[C@@H]2CCNC2)ccc(-c2ccc3c(c2)C(=O)NC3)c1-c1nnn[nH]1 [Example 138, (R)-4-(3-oxoisoindolin-5-yl)-N1-(pyrrolidin-3-yl)-3-(1H-tetrazol-5-yl)benzene-1,2-disulfonamide]  1.00
17. NCCNS(=O)(=O)c1ccc(-c2cccc(-c3n[nH]c(N)n3)c2)c(-c2nn[nH]n2)c1S(N)(=O)=O [Example 228, 3′-(5-amino-1H-1,2,4-triazol-3-yl)-N4-(2-aminoethyl)-2-(2H-tetrazol-5-yl)-[1,1′-biphenyl]-3,4-disulfonamide]  1.00
18. NS(=O)(=O)c1ccc(-c2cccc3[nH]c(C(=O)O)nc23)c(-c2nn[nH]n2)c1S(N)(=O)=O [Example 8, 4-(3,4-disulfamoyl-2-(2H-tetrazol-5-yl)phenyl)-1H-benzo[d]imidazole-2-carboxylic acid]  1.00
19. NC[C@@H]1CCN(S(=O)(=O)c2ccc(-c3cccc4sc(N)nc34)c(-c3nnn[nH]3)c2S(N)(=O)=O)C1.O=C(O)C(F)(F)F [Example 94, (S)-(1-((4-(2-aminobenzo[d]thiazol-4-yl)-2-sulfamoyl-3-(1H-tetrazol-5-yl)phenyl)sulfonyl)pyrrolidin-3-yl)methanaminium 2,2,2-trifluoroacetate]  1.00
20. Nc1nc2c(-c3ccc(S(=O)(=O)NC4CC5CNC4C5)c(S(N)(=O)=O)c3-c3nnn[nH]3)cccc2s1 (stereo not drawn) [Example 89, 4-(2-aminobenzo[d]thiazol-4-yl)-N^1-(2-azabicyclo[2.2.1]heptan-6-yl)-3-(1H-tetrazol-5-yl)benzene-1,2-disulfonamide]  1.00
21. Nc1nc2c(-c3ccc(S(=O)(=O)N4CC[C@@H](N)C4)c(S(N)(=O)=O)c3-c3nnn[nH]3)cccc2s1 [Example 62, 3-(2-amino-1,3-benzothiazol-4-yl)-6-{[(3R)-3-aminopyrrolidin-l-yl]sulfonyl}-2-(1H-tetrazol-5-yl)benzenesulfonamide]  1.00
22. NS(=O)(=O)c1c(S(=O)(=O)N[C@H]2CCNC2)ccc(-c2cccc3[nH]cnc23)c1-c1nn[nH]n1 [Example 197, 4-(1H-benzo[d]imidazol-4-yl)-N^1—((S)-pyrrolidin-3-yl)-3-(2H-tetrazol-5-yl)benzene-1,2-disulfonamide]  1.00
23. Nc1nc(-c2cccc(-c3ccc(S(=O)(=O)N[C@@H]4CCNC4)c(S(N)(=O)=O)c3-c3nn[nH]n3)c2)n[nH]1 [Example 231, (R)-3′-(5-amino-1H-1,2,4-triazol-3-yl)-N4-(pyrrolidin-3-yl)-2-(2H-tetrazol-5-yl)-[1,1′-biphenyl]-3,4-disulfonamide]  1.00
24. NC[C@@H](O)CNS(=O)(=O)c1ccc(-c2ccc(N)nc2)c(-c2nn[nH]n2)c1S(N)(=O)=O [Example 303, (R)-N1-(3-amino-2-hydroxypropyl)-4-(6-aminopyridin-3-yl)-3-(2H-tetrazol-5-yl)benzene-1,2-disulfonamide]  1.00
25. NC[C@H](O)CNS(=O)(=O)c1ccc(-c2ccncc2N)c(-c2nn[nH]n2)c1S(N)(=O)=O [Example 222, (S)—N1-(3-amino-2-hydroxypropyl)-4-(3-aminopyridin-4-yl)-3-(2H-tetrazol-5-yl)benzene-1,2-disulfonamide]  1.00
26. Nc1nc2c(-c3ccc(S(=O)(=O)N[C@H]4CCCNC4)c(S(N)(=O)=O)c3-c3nnn[nH]3)cccc2[nH]1 [Example 179, (S)-4-(2-amino-1H-benzo[d]imidazol-4-yl)-N^1-(piperidin-3-yl)-3-(1H-tetrazol-5-yl)benzene-1,2-disulfonamide]  2.00
27. Cn1c(N)nc2c(-c3ccc(S(N)(=O)=O)c(S(N)(=O)=O)c3-c3nn[nH]n3)cccc21 [Example 5, 4-(2-amino-1-methyl-1H-benzo[d]imidazol-4-yl)-3-(2H-tetrazol-5-yl)benzene-1,2-disulfonamide]  2.00
28. Nc1nc2c(-c3ccc(S(=O)(=O)NC4CCc5nccn5C4)c(S(N)(=O)=O)c3-c3nnn[nH]3)cccc2s1 (stereo not drawn) [Example 35, 4-(2-amino-1,3-benzothiazol-4-yl)-N1-(5,6,7,8-tetrahydroimidazo[1,2-a]pyridin-6-yl)-3-(1H-tetrazol-5-yl)benzene-1,2-disulfonamide]  2.00
29. Nc1nc2c(-c3ccc(S(=O)(=O)N4CCC[C@H](N)C4)c(S(N)(=O)=O)c3-c3nnn[nH]3)cccc2s1 [Example 66, 3-(2-amino-1,3-benzothiazol-4-yl)-6-{[(3S)-3-aminopiperidin-1-yl]sulfonyl}-2-(1H-tetrazol-5-yl)benzenesulfonamide]  2.00
30. CN(CCc1ccncc1)S(=O)(=O)c1ccc(-c2cccc3sc(N)nc23)c(-c2nnn[nH]2)c1S(N)(=O)=O.O=C(O)C(F)(F)F [Example 100, 4-(2-(4-(2-aminobenzo[d]thiazol-4-yl)-N-methyl-2-sulfamoyl-3-(1H-tetrazol-5-yl)phenylsulfonamido)ethyl)pyridin-1-ium 2,2,2-trifluoroacetate]  32.00
